Series [1] relates to A2780Cis cells. The series is described as follows: Tumor burden in A2780Cis-tumored mice treated with carboplatin. Conditions: mice with platinum-resistant A2780Cis tumors, 25 mg/kg carboplatin weekly IP. In kind it is in vivo, Athymic nude mice. The method, then: (§1) FIG. 3. Carboplatin indirectly regulates mesothelial VCAM-1 expression by affecting tumor burden. Athymic nude mice were given an intraperitoneal (IP) injection of A2780 (n=3 per time point) or A2780Cis (n=3 per time point) cells or saline (control, n=2). One week following tumor initiation a group of mice was imaged to obtain baseline values; the remaining mice were treated with 25 mg/kg carboplatin weekly. (A) SPECT/CT images were collected weekly starting 1 week after tumor initiation (week 0); weeks 0, 1 and 2 indicate that time after carboplatin treatment. […] Heart and omentum were removed from each cohort of mice weekly post-carboplatin treatment (x-axis, 0=1 week tumor, no treatment) and the percent injected dose of radioactivity per gram of tissue determined as described above (see FIG. 2). n=3 for each cohort, C=control animals. […]
(§2) To assess VCAM-1 as a marker of chemosensitivity, two cohorts of mice were injected with an isogenic paired cell line with one being resistant and the other sensitive to platinum: The first cohort (n=9) was injected with A2780, platinum sensitive cell line and the second (n=9) with A2780Cis platinum resistant cell line. […] After each timepoint, n=3 animals from each cohort were sacrificed and VCAM-In^111 uptake quantified via biodistribution as described above.

The conditions of series [2]: cited from earlier work.
The subject of series [3] is VCAM-1 expression in mesothelial cells (LP9). Description: Western analysis of VCAM-1 expression in mesothelial cells (LP9) treated with carboplatin. In kind it is cell-based. Conditions: LP9 human mesothelial cells; up to 1 μg/ml carboplatin for 24 hours.
The subject of series [4] is A2780 cells. The series is described as follows: Tumor burden in mice bearing platinum-sensitive cells treated with carboplatin. Conditions: 25 mg/kg carboplatin weekly IP. In kind it is in vivo, Athymic nude mice. The method, then:
as §1, §2

Results on one molecule are retold here after patent US9606123B2, “Compositions and methods for diagnosing and monitoring ovarian cancer progression and treatment” (University of Virginia Patent Foundation, priority 2013, dated 2017).

“Also recorded” adds a separate entry of the source.

`N.N.O=C([O-])C1(C(=O)[O-])CCC1.[Pt+2]` [carboplatin, cis-Diamine(1,1-cyclobutanedicarboxylato)platinum(II)]: the “Tumor growth / tumor burden under carboplatin” value in series [1] was “neither was altered; also recorded: continued to grow”. Also, the Solubility in water in series [2] was 25 mM. In series [3], the “Change in VCAM-1 expression (Western)” value is recorded as “no change”. Moreover, the “Tumor burden following carboplatin treatment” value in series [4] is given as “decreases”.
